Results taken from US20220348572A1, “BRIDGED HETEROCYCLYL-SUBSTITUTED PYRIMIDINE COMPOUND, PREPARATION METHOD THEREFOR, AND PHARMACEUTICAL USE THEREOF” (The National Institutes of Pharmaceutical R&D Co., Ltd., priority 2019, published 2022).

How the values were obtained:
[1] = tested on: IFN-2α-stimulated TYK2/JAK1-mediated pathway (pSTAT3); assay: Inhibition of STAT3 signaling pathway of human whole blood (IFN-2α-induced pSTAT3, flow cytometry); assay type: cell-based
Protocol: Test Example 3: Inhibition Effect of the Compounds of the Present Invention on STAT3 Signaling Pathway of Human Whole Blood
Sample preparation: The compounds of the present invention and the control were dissolved in DMSO solvent respectively to formulate into 10 mM initial liquid. The maximum concentration of the compound was 10 μM, 3-fold dilution, 10 concentration gradients, and duplicate wells for each concentration gradient.
Experimental process: 20 μL of the compound of the present invention was added to a flow cytometer tube (BD, 352052) containing 180 μL anticoagulant sodium heparin. 20 μL PBS was added to the control. The sample was incubated at 37° C. for 30 min. 2 μL stimulating factor was added and then incubated at 37° C. for 20 min. 1 mL erythrocyte lysate was rapidly added, and the sample was repeatedly inverted 5-10 times or vortexed and then incubated at 37° C. for 10 min. The sample was centrifuged at 600 g for 6-8 min. The supernatant was discarded. The precipitate was vortexed until suspending. The cells were washed with 3 mL PBS and centrifuged at 600 g for 6-8 min. The supernatant was discarded. The precipitate was vortexed until suspending. 1 mL of membrane breaking solution was added, and the system was mixed gently, incubated on ice for 30 min, and centrifuged at 600 g for 6-8 min. The supernatant was discarded. The precipitate was vortexed until suspending. The cells were washed. 3 mL PBS was added. The system was centrifuged at 600 g for 6-8 min. The supernatant was discarded. The precipitate was vortexed untile suspending. The process was repeated twice. 100 μL PBS was added to each staining tube. IFN-2a was added for stimulation, and CD3 and pSTAT3 antibodies […] were added. The system was mixed well, protected from light and incubated at room temperature for 60 min. The cells were washed. 3 mL PBS was added. The system was centrifuged at 600 g for 6-8 min. The supernatant was discarded. The precipitate was vortexed until suspending. The precipitate was suspended in 150 μL in the dark for the flow cytometry analysis. The IC50 (half inhibitory concentration) of the compounds was obtained by using the following non-linear fitting equation:
Y=Bottom+(Top−Bottom)/(1+10^((Log IC50−X)*HillSlope));
X: Log value of the concentration of the compound;
Bottom: The minimum value, Top: The maximum value, HillSlope: Slope
The inhibition effect of by the compounds of the present invention on the IFN-2α-stimulated TYK2/JAK1-mediated pathway is shown in Table 3. IC50 value of 0-100 nM is shown as A, IC50 value of 100-300 nM is shown as B, IC50 value of 300-1000 nM is shown as C, IC50 value which is greater than 1000 nM is shown as D. NT means not tested.

AIA in rats = assay: Pharmacodynamic study for AIA in rats (complete Freund's adjuvant, joint swelling score); assay type: in vivo, Lewis rats; settings: for Scoring value Day 1: Day 1, Mean ± SD; for Scoring value Day 1 / Scoring value Day 3 / Scoring value Day 7: AIA Lewis rats; for Scoring value Day 3: Day 3, Mean ± SD; for Scoring value Day 7: Day 7, Mean ± SD; for symptoms of arthritis induced by complete Freund's adjuvant (in words): AIA model in rats
Source text: Test Example 4: Pharmacodynamic Studies of the Compounds of Example 1, Example 1-b and Example 3 for AIA in Rats
Experimental material: complete Freund's adjuvant (Chondrex, 7027)
Experimental process: The in vivo efficacy of the compounds of the invention was investigated. 8-Week-old female Lewis rats were selected for modeling by complete Freund's adjuvant (J. of Immunology, 2010, 184: 5298-5307) and grouped after 12 days. 7 groups were divided: the model group, the Example 1 low dose group (3 mg/kg), the Example 1 high dose group (30 mg/kg), the Example 1-b low dose group (1 mg/kg), the Example 1-b high dose group (3 mg/kg), the Example 3 low dose group (3 mg/kg) and the Example 3 high dose group (30 mg/kg). The model group was given 0.5% CMC-Na and the rest groups were given the corresponding dose of the compound. The animals were scored according to the degree of joint swelling after 7 days of oral administration (Proc Soc Exp Bio Med 1962, 111: 544-547).

[2] = Pharmacokinetic study in rats after oral administration; assay type: in vivo, SD rats; settings: for pharmacokinetic parameters (in words): oral administration in SD rats; for AUC(0-t) / Cmax: rat, male SD rats, oral 5 mg/kg, plasma
Protocol: Experimental Example 5: Pharmacokinetic Studies of the Compounds of Example 1, Example 1-a, Example 1-b and Example 3 in Rats In order to investigate the blood concentration and pharmacokinetic parameters of the compounds of the present invention after oral administration, the corresponding LC/MS/MS assay and plasma treatment methods were developed for the compounds of the Experimental Examples. […] Male SD rats were orally administered at a dose of 5 mg/kg. Blood was orbitally collected and anticoagulated with sodium heparin. The plasma was deproteinated with acetonitrile. The samples were analyzed by LC/MS/MS method. Wherein, AUC<1000 μg/L*h is shown as C, AUC between 1000-2000 μg/L*h is shown as B, AUC>2000 μg/L*h is shown as A; Cmax<600 μg/L is shown as C, Cmax between 600-900 μg/L is shown as B, and Cmax>900 μg/L is shown as A.

SMILES	IC50 [1] [nM]	Scoring value Day 1 (AIA in rats; 3 mg/kg oral)	Scoring value Day 3 (AIA in rats; 3 mg/kg oral)	Scoring value Day 7 (AIA in rats; 3 mg/kg oral)	Scoring value Day 1 (AIA in rats; 30 mg/kg oral)	Scoring value Day 3 (AIA in rats; 30 mg/kg oral)	Scoring value Day 7 (AIA in rats; 30 mg/kg oral)	symptoms of arthritis induced by complete Freund's adjuvant (in words) (AIA in rats)	pharmacokinetic parameters (in words) [2]	AUC(0-t) [2] [µg·h/mL]	Cmax [2] [µg/mL]	Scoring value Day 1 (AIA in rats; 1 mg/kg oral)	Scoring value Day 3 (AIA in rats; 1 mg/kg oral)	Scoring value Day 7 (AIA in rats; 1 mg/kg oral)
Cn1cc(Nc2nccc(C3=CC4CCC(C3)N4C(=O)[C@@H]3CC3(F)F)n2)cn1 (stereo partly drawn) [Compound 1, ((S)-2,2-difluorocyclopropyl)(3-(2-((1-methyl-1H-pyrazol-4-yl)amino)pyrimidin-4-yl)-8-azabicyclo[3.2.1]oct-2-en-8-yl)methanone]	< 100	3.78 ± 2.54	2.67 ± 1.22	0.22 ± 0.44	4.11 ± 2.52	0.44 ± 0.73	0.00 ± 0.00	significantly inhibit	good pharmacokinetic parameters	> 2	> 0.9			
Cn1cc(Nc2nccc(C3=C[C@H]4CC[C@@H](C3)N4C(=O)[C@@H]3CC3(F)F)n2)cn1 [Compound 1-b, ((S)-2,2-difluorocyclopropyl)((1R,5S)-3-(2-((1-methyl-1H-pyrazol-4-yl)amino)pyrimidin-4-yl)-8-azabicyclo[3.2.1]oct-2-en-8-yl)methanone]	< 100	3.30 ± 2.67	0.30 ± 0.95	1.50 ± 3.75				significantly inhibit	good pharmacokinetic parameters	> 2	> 0.9	3.30 ± 2.67	3.10 ± 3.51	3.30 ± 3.71
Cn1cc(Nc2nccc(C3=CC4CCC(C3)N4C(=O)NCC(F)(F)F)n2)cn1 (stereo not drawn) [Compound 3, 3-(2-((1-methyl-1H-pyrazol-4-yl)amino)pyrimidin-4-yl)-N-(2,2,2-trifluoroethyl)-8-azabicyclo[3.2.1]oct-2-ene-8-carboxamide]	< 100	3.78 ± 1.92	3.78 ± 1.72	1.33 ± 0.87	3.44 ± 1.94	0.56 ± 0.53	0.00 ± 0.00	significantly inhibit	good pharmacokinetic parameters	1 to 2	0.6 to 0.9			
